# Patent US20260199535A1, “PCTA derivatives, conjugates thereof and uses thereof” (NOVARTIS AG, priority 2022, published 2026)
# Read-outs that look alike come from different tables or passages of the source.
# Tests used:
# [1] = crosslinker bond, 12-membered ring, CH3CN, 60.0 °C
# [2] = Buffer stability of Example 17 radiolabeled with ^177LuCl3; assay type: physicochemical; settings: ^177Lu-labeled, formulation diluted with PBS, RCP at t=0 93%
# Protocol: To a mixture of sodium acetate in water (35.0 μL, 1.5 M), ascorbic acid in H2O (35.00 μL, 0.04 M), ethanol (58.5 μL) and acetic acid (1.5 μL) was added [^177Lu]LuCl3 ([…], 0.04 M HCl, 58.2 MBq). A solution of (((1S)-5-((2R)-2-amino-3-((2,5-dioxo-1-(4-(3,6,9-tris(carboxymethyl)-3,6,9-triaza-1(2,6)-pyridinacyclodecaphane-4-yl)butyl)pyrrolidin-3-yl)thio)propanamido)-1-carboxypentyl)carbamoyl)-L-glutamic acid (7.9 μL) of a 0.2 mM in water was added. After shaking (450 rpm) at 95° C. for 15 min, the reaction mixture was left cooling down for few minutes. The solution was diluted with 385 μl of PBS to keep the final formulation with EtOH below 9%. The radiochemical purity and stability were assessed using HPLC-1 conditions: Waters; column: phenomenex Luna; particle size 2.5 μm; size: 4.6×100 mm; flow rate: 1 mL/min; mobile phase A: H2O+0.1% TFA and B: CH3CN; gradient: 10 to 80% solvent B in 9 min.
# [3] = Buffer stability of Example 17 radiolabeled with ^68GaCl3; assay type: physicochemical; settings: ^68Ga-labeled, sodium acetate/acetic acid reaction buffer, t=4 hours; RCP at t=0 75%
# Protocol: A solution of sodium acetate trihydrate in water 1.5 M (740.0 μL), acetic acid (260.0 μL) and (((1S)-5-((2R)-2-amino-3-((2,5-dioxo-1-(4-(3,6,9-tris(carboxymethyl)-3,6,9-triaza-1(2,6)-pyridinacyclodecaphane-4-yl)butyl)pyrrolidin-3-yl)thio)propanamido)-1-carboxypentyl)carbamoyl)-L-glutamic acid (2 mM; 1.907 mg/mL; […]) were added to a 8 mL glass V-vial. This vial was sealed, the vacuum needle and the ^68Ga/HCl 0.1M needle were connected to the vial. The gallium generator was eluted to the reaction vial (approximately 260 MBq [^68Ga]GaCl3 in HCl 0.1M, 1.1 mL). The vacuum needle and the ^68Ga/HCl 0.1M needle were disconnected from the reaction vial. After shaking (600 rpm) at 45° C. for 30 min, the reaction mixture was left cooling down for few minutes. The radiochemical purity and stability were assessed using HPLC-1 conditions: Waters; column: Phenomenex Luna; particle size 2.5 μm; size: 4.6×100 mm; flow rate: 1 mL/min; mobile phase A: H2O+0.1% TFA and B: CH3CN; gradient: 10 to 80% solvent B in 9 min. RCP at t=0, 75% and stability t=4 hours, 74%.
# [4] = crosslinker bond; 12-membered ring; intermediate G (1 eq)/DIPEA (5 eq); CH3CN; 15.6 mM; 60.0 °C
molecule,measurement,setting,value
"Tetra-tert-butyl 2,2′-(1^4-(3-((tert-butoxycarbonyl)amino)propoxy)-3,7-diaza-1(2,6)-pyridina-5(1,3)-benzenacyclooctaphane-3,7-diyl)(2R,2′R)-disuccinate","ring closure, isolated yield","[1]; 2,6-bis(bromomethyl)pyridine (1 eq)/DIPEA (5 eq), 32.6 mM",55.3%
CC(C)(C)OC(=O)C[C@@H](NCCOCCN[C@H](CC(=O)OC(C)(C)C)c1ccccn1)C(=O)OC(C)(C)C,"ring closure, isolated yield","[1]; the molecule shown is the open-chain precursor, methyl 2,6-bis(bromomethyl)isonicotinate (1 eq)/DIPEA (5 eq), 20.9 mM",48.7%
"N[C@@H](CSC1CC(=O)N(CCCCC2CN(CC(=O)O)CCN(CC(=O)O)Cc3cccc(n3)CN2CC(=O)O)C1=O)C(=O)NCCCC[C@H](NC(=O)N[C@@H](CCC(=O)O)C(=O)O)C(=O)O (stereo partly drawn) [Example 17, (((1S)-5-((2R)-2-amino-3-((2,5-dioxo-1-(4-(3,6,9-tris(carboxymethyl)-3,6,9-triaza-1(2,6)-pyridinacyclodecaphane-4-yl)butyl)pyrrolidin-3-yl)thio)propanamido)-1-carboxypentyl)carbamoyl)-L-glutamic acid]",stability (radiochemical purity by HPLC),[2]; t=4 hours,94%
same,stability (radiochemical purity by HPLC),[2]; t=8 hours,95%
same,stability (radiochemical purity by HPLC),[2]; t=24 hours,94%
same,stability (radiochemical purity by HPLC),[3],74%
"Tetra-tert-butyl 2,2′-(1^4-(methoxycarbonyl)-6-oxa-3,9-diaza-1(2,6)-pyridinacyclodecaphane-3,9-diyl)(2R,2′R)-disuccinate","ring closure, isolated yield","[1]; methyl 2,6-bis(bromomethyl)isonicotinate (1 eq)/DIPEA (5 eq), 17.9 mM",57.1%
"Tri-tert-butyl 2,2′,2″-(1^4-(3-((tert-butoxycarbonyl)amino)propoxy)-3,6,9-triaza-1(2,6)-pyridinacyclodecaphane-3,6,9-triyl)(2S,2′S,2″S)-tripropionate","ring closure, yield after HPLC",[4],52%
